PMC6383948, “Evaluation of a class of isatinoids identified from a high-throughput screen of human kinase inhibitors as anti-Sleeping Sickness agents” (PLoS Neglected Tropical Diseases, 2019)
Converted amounts (≈) assume the structure as drawn. Like-named read-outs stand apart in the source and are kept apart here.

Columns and labels:
[1] = system: T. b. brucei; test: T. b. brucei growth inhibition EC50 assay (resazurin, 72 h); type: cell-based, Trypanosoma brucei brucei Lister 427; conditions: for EC50: Trypanosoma brucei
Protocol: Mid-log phase growth T. b. brucei was diluted to a working cell density of 2,750 cells/mL and 90 μL/well dispensed into 96-well flat-bottom transparent assay plates (Nunc). Ten μL/well from intermediate plates were added. The final top concentration of compounds was 40 μM in 0.4% DMSO per well.
Assay plates were incubated for 72 h at 37°C and 5% CO2. Four hours prior to the end of the incubation, 20 μL of a 440 μM resazurin solution in prewarmed HMI-9 was added to each well and incubated for another 4 h. Fluorescence was then measured in an Infinite F200 plate reader (Tecan) at 550 nm (excitation filter) and 590 nm (emission filter). A 4-parameter equation was employed to fit the dose-response curves and determine of EC50 using the SigmaPlot 13.0 software. Assays were performed in duplicate at least twice, to achieve a minimal n = 3 per dose response.
Bloodstream Trypanosoma brucei brucei Lister 427 was cultured in Hirumi’s modified Iscove’s medium (HMI-9), supplemented with 10% heat-inactivated FBS, at 37 °C and 5% CO2 in T-25 vented flask (Corning®).
For dose-response experiments, compound plates were prepared for each analogue by serial 3-fold dilutions in 100% DMSO. Five concentration points (mammalian cytotoxicity) or ten concentration points (parasite growth inhibition), were made in 96-well transparent Nunclon plates. Pentamidine is routinely included in compound plates as internal quality control, and plates are stored sealed at -20 °C for no more than four weeks.

[2] = system: MRC5-SV2 cell line; test: Cytotoxicity assay in MRC5 (resazurin, 48 h); type: cell-based, human; conditions: MRC5 toxicity
Protocol: For dose-response experiments, compound plates were prepared for each analogue by serial 3-fold dilutions in 100% DMSO. Five concentration points (mammalian cytotoxicity) or ten concentration points (parasite growth inhibition), were made in 96-well transparent Nunclon plates. Pentamidine is routinely included in compound plates as internal quality control, and plates are stored sealed at -20 °C for no more than four weeks. Intermediate plates were made as described, adding 95 μL of DMEM complete media to 5 μL of compound per well setting a 5% DMSO amount. Log-phase MRC5 cells were removed from a T-75 TC flask using TrypLE® Express (Thermo®) and dispersed by gentle pipetting. Cell density was adjusted to working concentration in prewarmed DMEM medium: 25,000 cells in 90 μL of culture were plated in 96-well transparent Nunclon plates and let to settle for 24 h at 37 °C and 5% CO2. After settling incubation, 10 μL of fresh made intermediate plate were added per well: final maximal concentration for compounds was 50 μM in 0.5% DMSO per well. […] Fluorescence was read in an Infinite F200 plate reader (Tecan®) at 550 nm (excitation filter) and 590 nm (emission filter). A 4-parameter equation was used to fit the dose-response curves and determination of EC50 by SigmaPlot ® 13.0 software. Assays were performed in duplicate at least twice for positive compounds, to achieve a minimal n=3 per dose response.

[3] = Aqueous pH 7.4 solubility; type: physicochemical; conditions: pH 7.4 phosphate buffer, 25 °C, 20-24 h, read-out: Aq. Solubility
Protocol: Compounds are dried down from 10 mM DMSO solutions using centrifugal evaporation technique. Phosphate buffer (0.1 M pH 7.4) added and StirStix inserted in the glass vials, shaking is then performed at a constant temperature of 25 °C for 20-24 h. This step is followed by double centrifugation with a tip wash in between, to ensure that no residues of the dried compound are interfering. The solutions are diluted before analysis and quantification using LC/MS/MS is performed.

[4] = Human liver microsomal CLint; type: in vitro ADME; conditions: for microsomal CLint: human, liver microsomes, read-out: HLM Clint
Protocol: In vitro intrinsic clearance determined from human liver microsomes using a standard approach. Following incubation and preparation, the samples are analyzed using LC/MS/MS.

[5] = Rat hepatocyte CLint; type: in vitro ADME; conditions: rat hepatocytes
Protocol: In vitro intrinsic clearance determined from rat hepatocytes using a standard approach. Following incubation and preparation, the samples are analyzed using LC/MS/MS.

[6] = Human plasma protein binding (equilibrium dialysis); type: in vitro ADME; conditions: pH 7.4, read-out: PPB (converted)
Protocol: PPB is determined using equilibrium dialysis (RED device) to separate free from bound compound. The amount of compound in plasma (10 µM initial concentration) and in dialysis buffer (pH 7.4 phosphate buffer) is measured by LC-MS/MS after equilibration at 37 °C in a dialysis chamber. The fraction unbound (fu) is reported.

[7] = system: T. cruzi; test: β-D-Galactosidase transgenic T. cruzi assay (amastigote-infected L6 cells); type: cell-based, T. cruzi Tulahuen C4 strain; conditions: Trypanosoma cruzi, 96 h, read-out: T. cruzi pEC50 (converted)
Protocol: The T. cruzi Tulahuen C4 strain, expressing the β-galactosidase gene (LacZ) and L6 rat skeletal muscle cells, used as host cells, were cultured in RPMI-1640 supplemented with 10% iFBS, 2 mM L-glutamine, 100 U/mL penicillin, and 100 μg/mL streptomycin at 37 °C and 5% CO2.
A Thermo Scientific Multidrop Combi dispenser (MTX Lab Systems, Vienna, VA) was used to dispense 90 μL of T. cruzi amastigote–infected L6 cell culture (4×10^3 infected L6 cells per well) into 96-well Corning assay plates (Corning Inc., Corning, NY) already containing 10 μL of the compounds to be screened and controls. The plates were incubated at 37 °C for 96 h. Then, 30 μL of 100 μM CPRG and 0.1% NP40 diluted in PBS were added to each well, and the plates were incubated for 4 h at 37 °C in the dark. Absorbance at 585 nm was measured in a Vmax kinetic microplate reader ([…]). Compound activities were normalized using the in-plate negative (benznidazole at 10 μg/mL) and positive (0.2% DMSO) growth controls.

[8] = system: L. donovani; test: EC50 in L. donovani (infected THP-1 macrophages, luciferase); type: cell-based, Leishmania donovani MHOM/ET/67/HU3; conditions: Leishmania donovani, 72 h, read-out: L. donovani pEC50 (converted)
Protocol: Leishmania donovani MHOM/ET/67/HU3 cells with the luciferase gene integrated into the parasite genome[1] were grown at 28 °C in RPMI 1640-modified medium (Invitrogen) supplemented with 20% FBS with […] of hygromycin B.
The Human myelomonocytic cell line THP-1 was grown at 37 °C and 5% CO2 in RPMI-1640 supplemented with 10% iFBS, 2 mM […], 100 U/mL penicillin and […] streptomycin. 3 x 10^4 THP-1 cells per well in 96-well plates were differentiated to macrophages with 20 ng/mL of PMA treatment for 48 h followed by 24 h of culture in fresh medium.
Macrophage-differentiated THP-1 cells were infected at a macrophage/parasite ratio of 1/10 with stationary L. donovani promastigotes for 24 h at 35 °C and 5% CO2, and extracellular parasites were removed by washing with PBS. Infected cell cultures were then incubated with different compounds concentrations at 37 °C for 72 h. Luminescence was measured using the Promega kit luciferase assay system (Promega, Madison, WI). Assays were performed in duplicate at least twice, to achieve a minimal n=3 per dose response.

[9] = 72 h, resazurin, error within ±0.20 (Table 2) or ±0.08 (Table 3) log units, read-out: T.b.b. pEC50 (converted)
[10] = aqueous buffer, thermodynamic from solid

**Q.** For `CNS(=O)(=O)c1ccc(N/N=C2\C(=O)Nc3cccc(C=C(C)C)c32)cc1` [NEU-4391, (Z)-N-Methyl-4-(2-(4-(2-methylprop-1-en-1-yl)-2-oxoindolin-3-ylidene)hydrazinyl)benzenesulfonamide], which “activity against T. brucei” value [1] is on record?
**A.** sub-micromolar activity

**Q.** What about the EC50 [1, 9] of the same compound?
**A.** 158 nM

**Q.** What about the EC50 ([1]; T. brucei, read-out: EC50) of the same compound?
**A.** 84 nM

**Q.** And the “MRC5 pTC50” value [2]?
**A.** <4.3

**Q.** And the solubility [3]?
**A.** 4 µM (≈ 1.54 µg/mL)

**Q.** What about the “HLM Clint” value ([4]; human liver microsomes) of the same compound?
**A.** 8.63 µL/min/mg

**Q.** What about the microsomal CLint [4] of the same compound?
**A.** 8.6 µL/min/mg

**Q.** And the hepatocyte CLint [5]?
**A.** 103 µL/min/1e6 cells

**Q.** What about the fraction unbound at 10 µM [6] of the same compound?
**A.** < 0.04

**Q.** What about the EC50 [7] of the same compound?
**A.** 2240 nM

**Q.** What about the EC50 [8] of the same compound?
**A.** > 5010 nM

**Q.** For `CN(C)S(=O)(=O)c1ccc(N/N=C2\C(=O)Nc3ccccc32)cc1` [NEU-2118, (Z)-N,N-Dimethyl-4-(2-(2-oxoindolin-3-ylidene)hydrazinyl)benzenesulfonamide], which EC50 [1, 9] is on record?
**A.** 1580 nM

**Q.** And the “MRC5 pTC50” value [2]?
**A.** <4.3

**Q.** And the solubility [3, 10]?
**A.** < 1 µM

**Q.** What about the microsomal CLint [4] of the same compound?
**A.** 38.2 µL/min/mg

**Q.** And the hepatocyte CLint [5]?
**A.** 146 µL/min/1e6 cells

**Q.** And the fraction unbound at 10 µM [6]?
**A.** 0.01

**Q.** And the EC50 [7]?
**A.** > 10000 nM

**Q.** And the EC50 [8]?
**A.** > 10000 nM

**Q.** With `CNS(=O)(=O)c1ccc(N/N=C2\C(=O)Nc3ccccc32)cc1` [NEU-2124, (Z)-N-Methyl-4-(2-(2-oxoindolin-3-ylidene)hydrazinyl)benzenesulfonamide] as the compound, how does the EC50 [1, 9] read?
**A.** 5010 nM

**Q.** What about the “MRC5 pTC50” value [2] of the same compound?
**A.** <4.3

**Q.** What about the solubility [3, 10] of the same compound?
**A.** < 39 µM

**Q.** And the solubility [3]?
**A.** > 10 µM

**Q.** What about the microsomal CLint [4] of the same compound?
**A.** 20.3 µL/min/mg

**Q.** What about the hepatocyte CLint [5] of the same compound?
**A.** 36.4 µL/min/1e6 cells

**Q.** What about the fraction unbound at 10 µM [6] of the same compound?
**A.** 0.02

**Q.** And the EC50 [7]?
**A.** > 10000 nM

**Q.** What about the EC50 [8] of the same compound?
**A.** > 10000 nM
